{
  "source": "patent US7619005B2",
  "about": "“Methods for treating cognitive impairment in humans with Multiple Sclerosis” (Cognition Pharmaceuticals LLC, priority 2000, dated 2009)",
  "key": {"rats [1]": {"system": "rats", "test": "Tail-Flick Analgesia Testing (C105)", "format": "in vivo, rat", "parameters": "Tail-Flick Analgesia (latency to flick tail): unit not given here", "conditions": "for Tail-Flick Analgesia (latency to flick tail): each animal", "description": "For Tail-Flick Analgesia Testing, the animal was placed on top of the Tail-Flick monitor and gently held in place with a cotton towel. The tail of the animal was placed in a shallow groove lying between two sensors and over the top of a radiant heat wire. The Tail Flick monitor was activated, and the latency for the animal to flick its tail out of the groove and away from the heat source was recorded. The animal was returned to its home cage immediately following testing."}, "rats [2]": {"system": "rats", "test": "Spontaneous Object Recognition task, normal rats", "conditions": "0.5 mg/kg immediately following training", "quoted_text": "Apparatus for Object Recognition testing consisted of a plexiglass open field activity chamber, measuring 30 by 30 cm. A video camera was mounted on the wall above the chamber. Three plastic objects served as stimuli for the experiment. Two of the objects were identical to one another, and the third was different. Rats were individually habituated to the open-field box for three consecutive days. Habituation sessions were six minutes in duration. Twenty-four hours after the last day of habituation, a training session was conducted, in which two identical objects were placed in the open-field box, 10 cm from the back wall. The animal was placed into the box and was allowed to explore freely for a period of four minutes. Twenty-four hours after the training session, retention testing was conducted. During retention testing, the rat was placed back into the same activity box with one of the familiar objects used during the training session and a novel object that the rat had not seen before. The rat was allowed to explore the box and objects for a period of four minutes. Testing was conducted at the same time each day, and was videotaped for off-line analysis. Two discrimination indices, D1 and D2 were calculated in order to measure the strength of recognition memory. […]"}, "[3]": {"system": "healthy adult male and female subjects", "test": "Phase 1 studies of C105: safety and tolerability", "format": "in vivo, human", "from_the_text": "Safety and tolerability assessments were changes in vital signs, ECGs, Holter monitoring, laboratory tests, physical examination and adverse events."}, "Long-Evans rats [4]": {"system": "Long-Evans rats", "test": "Passive Avoidance test, injection immediately after training", "conditions": "i.p. immediately after training; p values=0.007 (C105), 0.0004 (d-amphetamine), 0.03 (SN522)"}, "rats [5]": {"system": "rats", "test": "Inhibitory Avoidance task, normal rats", "protocol": "The paradigms consists of one training trial and one retention trial. Test substances may be administered to the rats either before or after training. Improved memory, as a result of test substance administration, is evident on the retention trial.\n(§1) Two seconds after entering the dark chamber, a continuous 0.46 mA foot-shock was delivered through the floor grid for two seconds. The animal was then removed from the apparatus and returned to the home cage. The animals received a retention test 24 hours following training. The retention test was identical to training except that no foot-shock was delivered. […] Data was collected by the Graphic State™ Notation software, and was recorded onto an appropriate data sheet."}, "scopolamine treated rats": {"system": "scopolamine treated rats", "test": "Passive Avoidance in scopolamine treated rats (memory impairment)", "format": "in vivo, rat"}, "[6]": {"system": "rats with bilateral lesions of the fornix", "test": "Inhibitory Avoidance task, fornix lesion rats", "conditions": "for latency to enter the dark side of the apparatus: Fornix lesion rats, each animal", "protocol": "as §1"}, "rats [7]": {"system": "rats", "test": "Activity monitoring, open-field box, 10 minutes", "conditions": "2 mg/kg; entire 10 minute session (FIG. 7)", "protocol": "Activity monitoring was conducted in a Plexiblas open-field box. Activity levels were measured by a grid of infrared light beams that traversed the cage from left to right and back to front. The location of the animal was detected by breaks in the infrared light beams. General behavior and activity levels were recorded by a computerized monitoring system for a period of ten minutes. The analyzed behaviors included but were not limited to; horizontal activity, total distance moved, movement time, number of movements, number of rears, number of stereotyped movements, and time spent resting. Data was collected on-line using Versa Max (Version 1.83) computer software and a Hewlett Packard Pavilion computer."}, "Long-Evans rats [8]": {"system": "Long-Evans rats", "test": "Locomotor activity, activity monitoring chambers", "format": "in vivo, rat", "conditions": "higher doses (0.5, 2.5, 5.0 mg/kg ip) (FIG. 24)", "description": "Activity monitoring was conducted in a Plexiglas open-field box measuring 30 by 30 cm. […] The location of the animal within the cage was detected by breaks in the infrared light beams. Light beams status information was collected and rapidly analyzed by a computerized activity monitoring system (VersaMax System, Accuscan Instruments.)\nIn order to determine whether SN522 had any adverse effects on locomotor or exploratory activity, rats were injected with saline or 0.25, 0.5, 2.5 and 5.0 mg/kg of SN522 and immediately afterwards placed into the activity monitoring chambers for a period of three hours."}},
  "note": "“And” between values parts separate entries of the source, which are not always exact repeats. Identical values can stand only once.",
  "data": [
    {"compound": "(−)-1-methyl-2-phenylethylamine sulfate (2:1) [C105]", "values": [
      {"measurement": "Tail-Flick Analgesia (latency to flick tail)", "setting": "rats [1]; 1.0 mg/kg one hour prior to testing", "value": "4.60 and 5.09 and 6.01 and 1.13 and 2.28 and 3.26 and 3.30 and 4.59"},
      {"measurement": "Tail-Flick Analgesia (latency to flick tail)", "setting": "rats [1]; 2.0 mg/kg one hour prior to testing", "value": "3.89 and 3.96 and 4.45 and 2.46 and 2.68 and 2.79 and 3.05 and 3.56"},
      {"measurement": "Tail-Flick Analgesia (latency to flick tail)", "setting": "rats [1]; 4.0 mg/kg one hour prior to testing", "value": "6.66 and 16.44 and 20.00 and 2.22 and 3.13 and 5.43 and 6.26 and 6.42"},
      {"measurement": "Tail-Flick Analgesia (latency to flick tail)", "setting": "rats [1]; 8.0 mg/kg one hour prior to testing", "value": "6.54 and 7.39 and 14.43 and 3.13 and 4.67 and 4.72 and 5.22"},
      {"measurement": "analgesic properties", "setting": "rats [1]; 1.0 and 2.0 mg/kg one hour prior to testing", "value": "had no analgesic properties"},
      {"measurement": "analgesic properties", "setting": "rats [1]; 4.0 and 8.0 mg/kg one hour prior to testing, statistical significance at 4.0 mg/kg (p<0.0117)", "value": "did"},
      {"measurement": "discrimination indices D1 and D2 vs saline", "setting": "rats [2]; p<0.0147 and p<0.0024", "value": "significantly higher"},
      {"measurement": "recognition memory", "setting": "rats [2]; retention 24 h", "value": "significantly improved recognition memory"},
      {"measurement": "serious adverse events", "setting": "[3]; single oral doses 5 to 45 mg", "value": "no reported serious adverse events"},
      {"measurement": "most frequently reported adverse events", "setting": "[3]; single oral doses 5 to 45 mg, generally mild", "value": "dizziness, headache, insomnia, sinus tachycardia, supraventricular tachycardia and aptyalism"},
      {"measurement": "tolerability", "setting": "[3]; single oral doses ranging from 5 to 45 mg", "value": "well tolerated"},
      {"measurement": "dose that significantly improved performance on the passive avoidance task", "setting": "Long-Evans rats [4]", "value": 0.5, "unit": "mg/kg"},
      {"measurement": "latency to enter the dark side of the apparatus", "setting": "rats [5]; 0.4 mg/kg one hour prior to training, each animal, rank-ordered", "value": "231.0 s and 236.0 s and 250.0 s and 265.0 s and 629.0 s and 45.0 s and 62.0 s and 80.0 s and 87.0 s and 170.0 s"},
      {"measurement": "Inhibitory Avoidance performance, post training administration", "setting": "rats [5]; 0.5 mg/kg immediately after training (FIG. 11), p<0.0402", "value": "significantly enhanced performance on the Inhibitory Avoidance task"},
      {"measurement": "latency to enter the dark side of the apparatus", "setting": "rats [5]; 1.0 mg/kg one hour prior to training, each animal, rank-ordered", "value": "343.0 s and 729.0 s and 813.0 s and 824.0 s and 900.0 s and 101.0 s and 115.0 s and 121.0 s and 202.0 s and 265.0 s"},
      {"measurement": "Inhibitory Avoidance performance vs saline controls", "setting": "rats [5]; 1.0 mg/kg one hour prior to training, post hoc p<0.05", "value": "performed significantly better than saline injected controls"},
      {"measurement": "latency to enter the dark side of the apparatus", "setting": "rats [5]; 2.0 mg/kg one hour prior to training, each animal, rank-ordered", "value": "230.0 seconds and 231.0 seconds and 253.0 seconds and 366.0 seconds and 384.0 seconds and 30.0 seconds and 59.0 seconds (2×) and 127.0 seconds and 137.0 seconds"},
      {"measurement": "latency to enter the dark side of the apparatus", "setting": "rats [5]; Control rats, 0.5 mg/kg, each animal (Table 7)", "value": "214.0 s and 240.0 s and 252.0 s and 271.0 s and 284.0 s"},
      {"measurement": "latency to enter the dark side of the apparatus", "setting": "rats [5]; Control rats, 1.0 mg/kg, each animal (Table 7)", "value": "106.0 s and 195.0 s and 197.0 s and 213.0 s and 238.0 s"},
      {"measurement": "latency to enter the dark side of the apparatus", "setting": "rats [5]; Control rats, 2.0 mg/kg, each animal (Table 7)", "value": "86.0 s and 92.0 s and 106.0 s and 160.0 s and 192.0 s"},
      {"measurement": "latency to enter the dark side of the apparatus", "setting": "rats [5]; Control rats, 4.0 mg/kg, each animal (Table 7)", "value": "83.0 seconds (2×) and 86.0 seconds and 98.0 seconds and 193.0 seconds"},
      {"measurement": "mnemonic performance, Inhibitory Avoidance", "setting": "rats [5]; doses lower than 0.5 mg/kg (0.1, […]) one hour prior to training", "value": "not effective in improving the mnemonic performance"},
      {"measurement": "latency to enter the dark side of the apparatus", "setting": "rats [5]; low doses: 0.1 mg/kg one hour prior to training, each animal, 0.1 mg/kg", "value": "55.0 seconds (2×) and 110.0 seconds and 113.0 seconds and 124.0 seconds and 366.0 seconds and 37.0 seconds (2×) and 39.0 seconds (2×)"},
      {"measurement": "performance vs animals treated with scopolamine and saline", "setting": "scopolamine treated rats; 1.0 mg/kg of C105, printed p>0.05", "value": "performed significantly better than animals treated with scopolamine and saline"},
      {"measurement": "alleviation of scopolamine impairment (step-through latency)", "setting": "scopolamine treated rats; C105 i.p. immediately after training, log rank p=0.02 (FIG. 33)", "value": "effective at alleviating the impairment in the scopolamine-injected animals"},
      {"measurement": "dose most effective in improving the performance of the fornix lesion animals", "setting": "[6]; 0.5, 1.0, 2.0 and 4.0 mg/kg tested, one hour prior to testing (FIG. 12)", "value": 1.0, "unit": "mg/kg"},
      {"measurement": "latency to enter the dark side of the apparatus", "setting": "[6]; 0.5 mg/kg", "value": "21.0 seconds (2×) and 32.0 seconds and 55.0 seconds and 65.0 seconds and 72.0 seconds and 209.0 seconds and 4.0 seconds and 7.0 seconds and 13.0 seconds"},
      {"measurement": "latency to enter the dark side of the apparatus", "setting": "[6]; 1.0 mg/kg", "value": "19.0 seconds (2×) and 166.0 seconds and 221.0 seconds and 246.0 seconds and 274.0 seconds and 314.0 seconds and 4.0 seconds and 7.0 seconds"},
      {"measurement": "latency to enter the dark side of the apparatus", "setting": "[6]; 2.0 mg/kg", "value": "28.0 s and 30.0 s and 40.0 s and 70.0 s and 84.0 s and 153.0 s and 4.0 s and 17.0 s and 18.0 s and 26.0 s"},
      {"measurement": "latency to enter the dark side of the apparatus", "setting": "[6]; 4.0 mg/kg", "value": "25.0 s and 28.0 s and 42.0 s and 96.0 s and 140.0 s and 159.0 s and 2.0 s and 8.0 s and 13.0 s and 21.0 s"}
    ]},
    {"compound": "C[C@H](N)Cc1ccccc1", "note": "[(S)-(+)-amphetamine, reference compound]", "values": [
      {"measurement": "locomotor activity", "setting": "rats [7]", "value": "clear and significant enhancement in locomotor activity"},
      {"measurement": "effects on activity", "setting": "Long-Evans rats [8]", "value": "profound increases in activity"},
      {"measurement": "dose that significantly improved performance on the passive avoidance task", "setting": "Long-Evans rats [4]", "value": 2.0, "unit": "mg/kg"},
      {"measurement": "latency to enter the dark side of the apparatus", "setting": "rats [5]; 0.5 mg/kg, each animal, rank-ordered, 24 h retention", "value": "65.0 seconds and 110.0 seconds and 153.0 seconds and 207.0 seconds (2×) and 2.0 seconds and 26.0 seconds and 38.0 seconds and 39.0 seconds and 63.0 seconds"},
      {"measurement": "latency to enter the dark side of the apparatus", "setting": "rats [5]; 1.0 mg/kg, each animal, rank-ordered, 24 h retention", "value": "34.0 s and 35.0 s and 47.0 s and 157.0 s and 263.0 s and 7.0 s and 17.0 s and 19.0 s and 25.0 s and 31.0 s"},
      {"measurement": "Inhibitory Avoidance performance, dose experiment", "setting": "rats [5]; 2.0 mg/kg one hour before training (Tables 1 and 2)", "value": "appeared to enhance performance"},
      {"measurement": "IA performance of normal rats", "setting": "rats [5]; 2.0 mg/kg, one hour before (FIG. 5), p<0.05 vs all other groups", "value": "dramatically enhanced the performance of normal rats"},
      {"measurement": "memory for the Inhibitory Avoidance task", "setting": "rats [5]; 2.0 mg/kg, replicated experiments (FIG. 6), t(76)=3.416, p<0.001", "value": "significantly enhanced memory for the Inhibitory Avoidance task"},
      {"measurement": "latency to enter the dark side of the apparatus", "setting": "rats [5]; 2.0 mg/kg, each animal, rank-ordered, 24 h retention", "value": "190.0 s and 230.0 s and 245.0 s and 457.0 s and 517.0 s and 33.0 s and 63.0 s and 82.0 s and 84.0 s and 101.0 s"},
      {"measurement": "second retention test one week after the first retention test", "setting": "rats [5]; no additional training or drug (FIG. 4), p<0.01", "value": "performed significantly better than rats that had received control injections of vehicle solution"},
      {"measurement": "IA performance of fornix animals compared with normal, saline injected animals", "setting": "[6]; 2.0 mg/kg (FIG. 5)", "value": "not significantly different from normal, saline injected animals"},
      {"measurement": "IA performance of fornix lesion rats", "setting": "[6]; 2.0 mg/kg, one hour before (FIG. 5)", "value": "appeared to improve the performance of the fornix lesion rats"}
    ]}
  ]
}
